In US20260285850A1, “SUBSTITUTED OXAZOLIDINONES AND IMIDAZOLINONES AS HERBICIDES” (FMC CORPORATION, priority 2023, published 2026):

What was measured:
Type in all cases: in vivo
[1] = test system: wheat (Triticum aestivum); experiment: Test A preemergence soil spray, visual injury rating 0-100; conditions: 10 days
Procedure, shortened: (§1)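 Seeds sown in loam-sand blend got a preemergence directed soil spray, or emerged plants (2-10 cm, one- to two-leaf) got a postemergence spray, of compound in non-phytotoxic solvent with surfactant. After 10 days in greenhouse, injury rated visually versus untreated controls on a 0 (no effect) to 100 (complete control) scale.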

corn (Zea mays) [2] = experiment: as above; conditions: 10 days
Procedure, shortened: as §1

soybean (Glycine max) [3] = experiment: as above; conditions: 10 days
Procedure, shortened: as §1

kochia (Bassia scoparia) [4] = experiment: as above; conditions: 10 days
Procedure, shortened: as §1

[5] = test system: green foxtail (Setaria viridis); experiment: as above; conditions: 10 days
Procedure, shortened: as §1

[6] = test system: palmer (palmer amaranth, palmer pigweed, Amaranthus palmeri); experiment: as above; conditions: 10 days
Procedure, shortened: as §1

[7] = test system: ragweed (common ragweed, Ambrosia artemisiifolia); experiment: as above; conditions: 10 days
Procedure, shortened: as §1

[8] = test system: ryegrass, Italian (italian ryegrass, Lolium multiflorum); experiment: as above; conditions: 10 days
Procedure, shortened: as §1

[9] = test system: barnyardgrass (Echinochloa crus-galli); experiment: as above; conditions: 10 days
Procedure, shortened: as §1

[10] = test system: blackgrass (Alopecurus myosuroides); experiment: as above; conditions: 10 days
Procedure, shortened: as §1

[11] = test system: oat, wild (wild oat, Avena fatua); experiment: as above; conditions: 10 days
Procedure, shortened: as §1

[12] = test system: wheat (Triticum aestivum); experiment: Test A postemergence application, visual injury rating 0-100
Procedure, shortened: as §1

corn (Zea mays) [13] = experiment: as above
Procedure, shortened: as §1

soybean (Glycine max) [14] = experiment: as above
Procedure, shortened: as §1

kochia (Bassia scoparia) [15] = experiment: as above
Procedure, shortened: as §1

[16] = test system: horseweed (Erigeron canadensis); experiment: as above
Procedure, shortened: as §1

[17] = test system: green foxtail (Setaria viridis); experiment: as above
Procedure, shortened: as §1

[18] = test system: palmer (palmer amaranth, palmer pigweed, Amaranthus palmeri); experiment: as above
Procedure, shortened: as §1

[19] = test system: ragweed (common ragweed, Ambrosia artemisiifolia); experiment: as above
Procedure, shortened: as §1

[20] = test system: ryegrass, Italian (italian ryegrass, Lolium multiflorum); experiment: as above
Procedure, shortened: as §1

[21] = test system: barnyardgrass (Echinochloa crus-galli); experiment: as above
Procedure, shortened: as §1

[22] = test system: blackgrass (Alopecurus myosuroides); experiment: as above
Procedure, shortened: as §1

[23] = test system: oat, wild (wild oat, Avena fatua); experiment: as above
Procedure, shortened: as §1

[24] = test system: ducksalad (Heteranthera limosa); experiment: Test B flooded paddy test, visual plant response rating 0-100; conditions: 250 g ai/ha, Flood, applied to paddy water, evaluated after 13 days
Procedure, shortened: (§2)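 Plants were grown to the 2-leaf stage, then pots were flooded to 3 cm above the soil and compound was applied directly to the paddy water, with that depth kept throughout.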

rice (Oryza sativa) = experiment: as above; conditions: 250 g ai/ha, Flood, applied to paddy water, evaluated after 13 days
Procedure, shortened: as §2

[25] = test system: sedge, umbrella (small-flower umbrella sedge, Cyperus difformis); experiment: as above; conditions: 250 g ai/ha, Flood, applied to paddy water, evaluated after 13 days
Procedure, shortened: as §2

[26] = test system: barnyardgrass (Echinochloa crusgalli); experiment: as above; conditions: 250 g ai/ha, Flood, applied to paddy water, evaluated after 13 days
Procedure, shortened: as §2

[27] = 62 g ai/ha, 0 = no effect, 100 = complete control
[28] = 62 g ai/ha, postemergence, 10 days, 0 = no effect, 100 = complete control
[29] = Postemergence, 16 g ai/ha, greenhouse 10 days, 0 no effect, 100 complete control

Question: How did the “Wheat plant response rating” value ([1]; 16 g ai/ha, 0 to 100 scale) turn out when `COC(=O)COC(=O)C1=CCC(NC(=O)C2(C)CN(c3cc(F)cc(F)c3)C(=O)O2)C1` (centres unmarked) [Compound 108] was run?
Answer: The value was 90.

Question: What about the “Wheat plant response rating (0-100)” value [1, 27] of the same molecule?
Answer: Its value is 90.

Question: What about the “Corn plant response rating” value (corn (Zea mays) [2]; 16 g ai/ha, 0 to 100 scale) of the same molecule?
Answer: Its value is 30.

Question: What about the “Corn plant response rating (0-100)” value (corn (Zea mays) [2]; [27]) of the same molecule?
Answer: The value was 60.

Question: And the “Soybean plant response rating” value (soybean (Glycine max) [3]; 16 g ai/ha, 0 to 100 scale)?
Answer: The value was 0.

Question: What about the “Soybean plant response rating (0-100)” value (soybean (Glycine max) [3]; [27]) of the same molecule?
Answer: The value was 10.

Question: What about the “Kochia plant response rating” value (kochia (Bassia scoparia) [4]; 16 g ai/ha, 0 to 100 scale) of the same molecule?
Answer: Its value is 0.

Question: What about the “Kochia plant response rating (0-100)” value (kochia (Bassia scoparia) [4]; [27]) of the same molecule?
Answer: Its value is 50.

Question: What about the “Foxtail, Green plant response rating” value ([5]; 16 g ai/ha, 0 to 100 scale) of the same molecule?
Answer: The value was 30.

Question: What about the “Foxtail, Green plant response rating (0-100)” value [5, 27] of the same molecule?
Answer: The value was 100.

Question: And the “Pigweed, Palmer plant response rating” value ([6]; 16 g ai/ha, 0 to 100 scale)?
Answer: Its value is 30.

Question: What about the “Pigweed, Palmer plant response rating (0-100)” value [6, 27] of the same molecule?
Answer: The value was 90.

Question: And the “Ragweed plant response rating” value ([7]; 16 g ai/ha, 0 to 100 scale)?
Answer: The value was 0.

Question: What about the “Ragweed plant response rating (0-100)” value [7, 27] of the same molecule?
Answer: Its value is 0.

Question: And the “Ryegrass, Italian plant response rating” value ([8]; 16 g ai/ha, 0 to 100 scale)?
Answer: Its value is 70.

Question: What about the “Ryegrass, Italian plant response rating (0-100)” value [8, 27] of the same molecule?
Answer: Its value is 90.

Question: And the “Barnyardgrass plant response rating” value ([9]; 16 g ai/ha, 0 to 100 scale)?
Answer: The value was 20.

Question: And the “Barnyardgrass plant response rating (0-100)” value [9, 27]?
Answer: The value was 100.

Question: What about the “Blackgrass plant response rating” value ([10]; 16 g ai/ha, 0 to 100 scale) of the same molecule?
Answer: The value was 0.

Question: And the “Blackgrass plant response rating (0-100)” value [10, 27]?
Answer: Its value is 30.

Question: And the “Oat, Wild plant response rating” value ([11]; 16 g ai/ha, 0 to 100 scale)?
Answer: Its value is 0.

Question: And the “Oat, Wild plant response rating (0-100)” value [11, 27]?
Answer: Its value is 70.

Question: And the “Wheat plant response rating (0-100)” value [12, 28]?
Answer: Its value is 90.

Question: And the “Wheat plant response rating (0 to 100 scale)” value [12, 29]?
Answer: Its value is 50.

Question: And the “Corn plant response rating (0-100)” value (corn (Zea mays) [13]; [28])?
Answer: The value was 100.

Question: What about the “Corn plant response rating (0 to 100 scale)” value (corn (Zea mays) [13]; [29]) of the same molecule?
Answer: Its value is 100.

Question: What about the “Soybean plant response rating (0-100)” value (soybean (Glycine max) [14]; [28]) of the same molecule?
Answer: Its value is 70.

Question: And the “Soybean plant response rating (0 to 100 scale)” value (soybean (Glycine max) [14]; [29])?
Answer: The value was 60.

Question: What about the “Kochia plant response rating (0-100)” value (kochia (Bassia scoparia) [15]; [28]) of the same molecule?
Answer: Its value is 90.

Question: What about the “Kochia plant response rating (0 to 100 scale)” value (kochia (Bassia scoparia) [15]; [29]) of the same molecule?
Answer: The value was 80.

Question: What about the “Horseweed plant response rating (0-100)” value [16, 28] of the same molecule?
Answer: The value was 70.

Question: What about the “Horseweed plant response rating (0 to 100 scale)” value [16, 29] of the same molecule?
Answer: Its value is 30.

Question: And the “Foxtail, Green plant response rating (0-100)” value [17, 28]?
Answer: Its value is 90.

Question: What about the “Foxtail, Green plant response rating (0 to 100 scale)” value [17, 29] of the same molecule?
Answer: Its value is 60.

Question: What about the “Pigweed, Palmer plant response rating (0-100)” value [18, 28] of the same molecule?
Answer: Its value is 90.

Question: What about the “Pigweed, Palmer plant response rating (0 to 100 scale)” value [18, 29] of the same molecule?
Answer: Its value is 70.

Question: What about the “Ragweed plant response rating (0-100)” value [19, 28] of the same molecule?
Answer: The value was 40.

Question: And the “Ragweed plant response rating (0 to 100 scale)” value [19, 29]?
Answer: The value was 20.

Question: And the “Ryegrass, Italian plant response rating (0-100)” value [20, 28]?
Answer: Its value is 80.

Question: What about the “Ryegrass, Italian plant response rating (0 to 100 scale)” value [20, 29] of the same molecule?
Answer: Its value is 60.

Question: And the “Barnyardgrass plant response rating (0-100)” value [21, 28]?
Answer: The value was 100.

Question: And the “Barnyardgrass plant response rating (0 to 100 scale)” value [21, 29]?
Answer: Its value is 90.

Question: What about the “Blackgrass plant response rating (0-100)” value [22, 28] of the same molecule?
Answer: The value was 90.

Question: And the “Blackgrass plant response rating (0 to 100 scale)” value [22, 29]?
Answer: The value was 70.

Question: What about the “Oat, Wild plant response rating (0-100)” value [23, 28] of the same molecule?
Answer: The value was 80.

Question: And the “Oat, Wild plant response rating (0 to 100 scale)” value [23, 29]?
Answer: Its value is 30.

Question: And the “Plant response rating, Ducksalad (0 to 100 scale, 0 is no effect and 100 is complete control)” value [24]?
Answer: Its value is 70.

Question: What about the “Plant response rating, Rice (0 to 100 scale, 0 is no effect and 100 is complete control)” value (rice (Oryza sativa)) of the same molecule?
Answer: The value was 85.

Question: What about the “Plant response rating, Sedge, Umbrella (0 to 100 scale, 0 is no effect and 100 is complete control)” value [25] of the same molecule?
Answer: The value was 70.

Question: And the “Plant response rating, Barnyardgrass (0 to 100 scale, 0 is no effect and 100 is complete control)” value [26]?
Answer: Its value is 50.
